Data: patent US20130143929A1, “FUNGICIDAL IMIDAZOLES” (EI DU PONT DE NEMOURS AND COMPANY, priority 2010, published 2013)
Marks after values point to notes of the source that are not given here.

Key:
Format in all cases: in vivo
[1] = system: Puccinia recondite f. sp. tritici (the causal agent of wheat leaf rust); test: Test A: wheat leaf rust, preventive spray on wheat seedlings, visual disease rating; conditions: wheat leaf rust, preventive spray on wheat seedlings
Method in brief: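 Wheat seedlings were sprayed to run-off with compound suspended in acetone/water containing 250 ppm Trem 014 (200 ppm ≈ 800 g/ha; some at 40 ppm). Puccinia recondite spores were inoculated the next day. Plants were held 24 h saturated at 20° C, then 7 days at 20° C, and disease control was rated visually on a 0–100 scale against controls.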

[2] = system: Septoria tritici (the causal agent of wheat leaf blotch); test: Test B: wheat leaf blotch, preventive spray on wheat seedlings, visual disease rating; conditions: wheat leaf blotch, preventive spray on wheat seedlings
Method in brief: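 Wheat seedlings sprayed to run-off with compound suspension (acetone/water with 250 ppm Trem 014; 200 ppm ≈ 800 g/ha, some at 40 ppm), inoculated next day with Septoria tritici spores. 48 h saturated humidity at 24 °C, then 19 days at 20 °C; visual rating, 100 = full control.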

[3] = system: Botrytis cinerea (the causal agent of tomato Botrytis); test: Test C: tomato Botrytis, preventive spray on tomato seedlings, visual disease rating; conditions: tomato Botrytis, preventive spray on tomato seedlings
Method in brief: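 Test suspension (acetone/water with 250 ppm Trem 014; 200 ppm equivalent to 800 g/ha) sprayed to run-off on tomato seedlings; B. cinerea spores inoculated next day. After 48 h saturated humidity at 20° C then 3 days at 24° C, disease rated visually as % control relative to untreated controls (0–100).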

[4] = system: Blumeria graminis f. sp. tritici (also known as Erysiphe graminis f. sp. tritici, the causal agent of wheat powdery mildew); test: Test D: wheat powdery mildew, preventive spray on wheat seedlings, visual disease rating; conditions: wheat powdery mildew, preventive spray on wheat seedlings
Method in brief: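 Compound suspended in acetone/water (50/50) with 250 ppm Trem 014 and sprayed to run-off on wheat seedlings (200 ppm ≈ 800 g/ha), then inoculated next day with spore dust. Disease rated visually after 8 days at 20 °C as % control relative to untreated plants (0-100).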

[5] = no asterisk (standard test suspension concentration, not 40 ppm)
[6] = asterisk: 40 ppm test suspension

| SMILES | Test A rating (100 = 100% disease control, 0 = no disease control relative to the controls) [1, 5] [%] | Test B rating (100 = 100% disease control, 0 = no disease control relative to the controls) [2, 5] [%] | Test C rating (100 = 100% disease control, 0 = no disease control relative to the controls) [3, 5] [%] | Test D rating (100 = 100% disease control, 0 = no disease control relative to the controls) [4, 5] [%] | Test A rating (100 = 100% disease control, 0 = no disease control relative to the controls) [1, 6] | Test B rating (100 = 100% disease control, 0 = no disease control relative to the controls) [2, 6] | Test C rating (100 = 100% disease control, 0 = no disease control relative to the controls) [3, 6] | Test D rating (100 = 100% disease control, 0 = no disease control relative to the controls) [4, 6] |
| --- | --- | --- | --- | --- | --- | --- | --- | --- |
| Cc1ncc(C(O)c2c(F)cc(F)cc2F)n1-c1ccc(F)cc1Br (stereo not drawn) [compound 174] | 88 | 35 | 0 | 0 |  |  |  |  |
| Cc1ncc(C(O)c2c(F)cc(F)cc2F)n1-c1ccc(F)cc1F (stereo not drawn) [compound 175] | 97 | 3 | 9 | 0 |  |  |  |  |
| Cc1nc(Br)c(C(O)c2c(F)cc(F)cc2F)n1-c1ccc(F)cc1Br (stereo not drawn) [compound 176] | 100 | 100 | 100 | 96 |  |  |  |  |
| Cc1nc(Br)c(C(O)c2c(F)cc(F)cc2F)n1-c1ccc(F)cc1F (stereo not drawn) [compound 177] | 100 | 100 | 99 | 0 |  |  |  |  |
| Cc1nc(Br)c(C(O)c2ccc(F)cc2F)n1-c1c(F)cccc1F (stereo not drawn) [compound 178] |  |  |  |  | 100* % | 100* % | 96* % | 64* % |
| Cc1nc(Br)c(C(O)c2ccc(Cl)cc2F)n1-c1c(F)cccc1F (stereo not drawn) [compound 179] |  |  |  |  | 68* % | 100* % | 78* % | 43* % |
| Cc1nc(Cl)c(C(O)c2ccc(C#N)cc2F)n1-c1c(F)cccc1F (stereo not drawn) [compound 180] |  |  |  |  | 0* % | 48* % | 0* % | 0* % |
| Cc1ncc(C(O)c2cccnc2)n1-c1c(F)cc(F)cc1F (stereo not drawn) [compound 181] | 0 | 1 | 0 | 0 |  |  |  |  |
| Cc1nc(Br)c(C(O)c2cccnc2)n1-c1c(F)cc(F)cc1F (stereo not drawn) [compound 182] | 68 | 100 | 0 | 21 |  |  |  |  |
| COc1cc(F)c(-n2c(C)nc(Cl)c2C(O)c2ccc(F)cc2C)c(F)c1 (stereo not drawn) [compound 183] |  |  |  |  | 86* % | 100* % | 8* % | 0* % |
| Cc1cc(F)ccc1C(O)c1c(Br)nc(C)n1-c1c(F)cccc1Cl (stereo not drawn) [compound 186] |  |  |  |  | 99* % | 100* % | 99* % | 97* % |
| Cc1nc(Br)c(C(O)c2ccc(F)cc2Cl)n1-c1c(F)cccc1Cl (stereo not drawn) [compound 188] |  |  |  |  | 100* % | 100* % | 99* % | 99* % |
| Cc1ncc(C(O)c2ccc(F)cc2Cl)n1-c1ccc(F)cc1Br (stereo not drawn) [compound 189] | 100 | 100 | 99 | 27 |  |  |  |  |
| Cc1nc(Br)c(C(O)c2ccc(F)cc2Cl)n1-c1ccc(F)cc1Br (stereo not drawn) [compound 190] | 100 | 100 | 99 | 0 |  |  |  |  |
| Cc1ccc(C(O)c2c(Cl)nc(C)n2-c2c(F)cccc2F)c(C)c1 (stereo not drawn) [compound 191] |  |  |  |  | 100* % | 100* % | 80* % | 99* % |
| COc1cc(F)c(C(O)c2c(Cl)nc(C)n2-c2c(F)cccc2F)c(F)c1 (stereo not drawn) [compound 192] |  |  |  |  | 100* % | 100* % | 100* % | 53* % |
| Cc1nc(Cl)c(C(O)c2c(Cl)cccc2Cl)n1-c1c(F)cccc1F (stereo not drawn) [compound 193] |  |  |  |  | 99* % | 100* % | 59* % | 0* % |
| Cc1nc(Br)c(C(O)c2c(Cl)cccc2Cl)n1-c1c(F)cccc1F (stereo not drawn) [compound 194] |  |  |  |  | 99* % | 100* % | 77* % | 0* % |
| Cc1nc(Cl)c(C(O)c2ccc(F)cc2Cl)n1-c1c(F)cc(C#N)cc1F (stereo not drawn) [compound 198] |  |  |  |  | 97* % | 100* % | 0* % | 0* % |
| Cc1nc(Br)c(C(O)c2ccc(C#N)cc2F)n1-c1c(F)cccc1F (stereo not drawn) [compound 199] |  |  |  |  | 0* % | 62* % | 0* % | 0* % |
| Cc1nc(Cl)c(C(O)c2ccc(F)cc2Cl)n1-c1c(F)cccc1Cl (stereo not drawn) [compound 200] |  |  |  |  | 100* % | 100* % | 99* % | 98* % |
